Consider 90 molecules from a melting point compilation (Tetko et al.; mined from patent text by program, amines drawn as free bases though some values may be those of a salt).

Broadly, the melting point is the temperature of the solid-liquid transition.

With `Cc1ccc(N2C(=O)c3cc([N+](=O)[O-])cc([N+](=O)[O-])c3C2=O)cc1`, the melting point is 182 to 183 °C.

With `CC(=O)Nc1ccc(-c2ccc(NC(C)=O)cc2I)c(I)c1`, the melting point was 300 to 301 °C. Take `N#CC(C(=O)NCC(=O)O)C(=O)c1nn(-c2ccccc2)c2c1CSc1ccccc1-2` (stereo not given): the melting point was 224 to 226 °C. Take `Cc1ccc(S(=O)(=O)Oc2cc(C=O)cc(OS(=O)(=O)c3ccc(C)cc3)c2OS(=O)(=O)c2ccc(C)cc2)cc1`: the melting point was determined as 159 °C. In the case of `Fc1ccc(C(CN2CCCC2)=C2SCCCS2)cc1`, the melting point lay within 69 to 70 °C.

The molecule `O=C(O)c1csc2c(=O)cc(-c3ccccc3)oc12` came in with a melting point of 282 to 283 °C.

`COc1ccc(C2=NNC(=O)C(C)C2)cc1` (stereo not given) yielded a melting point of 203 to 206 °C. Molecule `Nc1ccc(C(c2cccc(N)c2)(C(F)(F)F)C(F)(F)F)cc1` registered a melting point of 142 to 143 °C. `N#CC1CN1C(=O)c1ccccn1` (stereo not given) showed a melting point of 124 to 127 °C. Molecule `Cc1cc(C)c(S(=O)(=O)NCCCCOc2ccc(-n3ccnc3)cc2)c(C)c1` returned a melting point of 130 to 131 °C. In turn, `N#CCN1CCN(c2cccc(Cl)c2Cl)CC1` displayed a melting point of 89 to 92 °C. Molecule `Cc1cc(-c2cccc(C(F)(F)F)c2)n2nc(C(F)(F)F)nc2n1` returned a melting point of 133 to 134 °C. For `CCCCN(N=Nc1[nH]cnc1C(N)=O)C(C)=N`, the melting point was determined as 191 °C. The value for `O=C1CCC(c2ccc(-c3ccc([N+](=O)[O-])cc3F)cc2)O1` (stereo not given) was 94 °C. Consider `CCOC(=O)c1ccc(I)cc1N`, for which the melting point was in the range of 51 to 53 °C. To `CN1C(=O)CCC1(O)c1ccc(Cl)c(S(N)(=O)=O)c1` (stereo not given) belongs 147 to 149 °C; to `O=C1CN(Cc2ccccc2)CC2=C1N=C1N=C(N3CCOCC3)NN1C2`, 291 to 293 °C; to `CCOC(=O)N1CCN(c2nc(=O)c3cccnc3s2)CC1`, 139 to 140 °C. Turning to `CC(=O)c1cccc(-c2ncccc2OC2SCC(O)C(O)C2O)c1` (stereo not given), the melting point is 128 to 133 °C. To `O=[N+]([O-])c1ccc(Oc2c(Cl)cc(S(=O)(=O)NC(=NO)Nc3ccc(Cl)cc3)cc2Cl)c(Cl)c1` belongs 180 °C; to `O=C(Nc1ccc2ccc(Oc3ccccc3)nc2n1)C1CC1`, 190 °C. `CN(c1ccc(O)cc1)c1nc2ccccc2[nH]1`: the melting point was over 260 °C. As for `COc1cc2nc(N3CCc4ccc(NC(C)=O)cc4C3)nc(N)c2cc1OC`, the melting point lay in the range of 243 to 244 °C. The value for `CC12CCC(=O)C=C1CCC1C2CCC2(C)C(C(F)F)CCC12` (stereo not given) was 137 to 140 °C. To `c1ccc(CCN2CCN(Cc3nc4ccccc4[nH]3)CC2)cc1` belongs 150 to 152 °C. `Oc1ccc2c(-c3ccccc3F)noc2c1I` came in with a melting point of 212 to 214 °C.

As for `CC(C)C(C)(C#N)N1C(=O)c2cccc(Cl)c2C1=O` (stereo not given), the melting point was in the range of 71 to 72 °C.

`CN(C)Cc1cccc(OCCCNc2nc(N=Cc3ccncc3)nn2C)c1` displayed a melting point of 127 to 128 °C.

The molecule `ONCCc1ccccc1` had a melting point of 118 to 121 °C. Molecule `Cn1c(COc2ccc(CC3SC(=O)NC3=O)cc2)nc2ccc(Oc3ccc(NC(=S)NCc4ccccc4)cc3)cc21` (stereo not given) gave a melting point of 175 to 177 °C. With `COc1ccccc1N1CCN(CC(C(=O)NC(C)(C)C)c2ccccc2)CC1` (stereo not given), the melting point fell in the range of 160 to 163 °C. `CCC1=NC(=NOC(=O)NC)SC1(C)C` yielded a melting point of 98 to 100 °C.

`O=C1Nc2ccc(C(c3ccc(Cl)cc3)n3ccnc3)cc2C(c2cccc(Cl)c2)N1` (stereo not given) registered a melting point of 177 °C. In the case of `CCCCCCNC(=O)OC1CCN(C(=O)Oc2ccc(Oc3ccc(OC)cc3)cc2)CC1`, the melting point was 91 to 93 °C. To `CS(=O)(=O)c1ccc(-c2[nH]c3ccc(F)cc3c2-c2ccccc2)cc1` belongs 243 to 245 °C; to `CCOC(=O)C(C)=CNc1ccc2ccccc2n1`, 164 to 165 °C. The value for `O=[N+]([O-])c1ccc(C#CCCN2CC=C(c3ccccc3)CC2)nc1` was 133 to 134 °C. As to `CC12CCC(C1)C1(C)Oc3ccc(C(=O)COc4ccc(C(=O)O)cc4)cc3C21C` (stereo not given), the melting point came out at 188 °C.

The molecule `COCCOc1ccccc1-c1cc2[nH]c3ccc(O)cc3c2c2c1C(=O)NC2=O` displayed a melting point of 275 to 279 °C. For `CN1NC(=O)CSC1=Nc1ccc(Cl)c(Cl)c1`, the melting point is 118 to 120 °C. `CN(C)CCCN1c2ccccc2C(c2ccccc2F)=Nc2cccnc21` gave a melting point of 92 to 94 °C. The value for `Cc1ccc(Nc2ccccc2[N+](=O)[O-])c(C#N)c1` was 135 to 139 °C. For the molecule `CCOCc1nc2c(N)nc3ccccc3c2n1CCCc1cc(-c2ccccc2)no1`, the melting point lay in the range of 171 to 172 °C. To `CC(C)CCN1C(=O)C(NC(=O)Oc2ccccc2)C(=O)N(c2ccccc2)c2ccc(F)cc21` (stereo not given) belongs 160 to 165 °C; to `COc1ccc2[nH]cc(CCNC=O)c2c1Cl`, 120 to 121 °C; to `COC(=O)c1c(C(=O)OC)c2n(c1C)Cc1ccccc1C2`, 152 to 154 °C. In turn, `Cn1c(=O)c2c(ncn2CCOC(=O)C(C)(C)Oc2ccc(Cl)cc2)n(C)c1=O` had a melting point of 131 to 132 °C. The molecule `COC(=O)c1cc(N)nc(-c2ccc(Cl)c(F)c2F)n1` registered a melting point of 192 to 195 °C.

For `Clc1nc2cccccc-2n1`, the melting point is 162 to 163 °C. `OC(CC1CCN(CC2CC2)CC1)(c1ccc(F)cc1)c1ccc(F)cc1`: the melting point lay in the range of 119 to 121 °C. `Nc1cccc2c1N1CCN=C1S2`: the melting point worked out at 229 °C. In turn, `O=C(Nc1ccc2[nH]c(=O)[nH]c2c1)C(=O)N1CCC(Cc2ccc(Cl)cc2)CC1` had a melting point of 299 to 300 °C.

`c1cnc(N2CCN(Cc3nc4ccccc4[nH]3)CC2)nc1` registered a melting point of 198 to 200 °C. With `O=C(NNc1ccccc1)c1ccc(F)cc1F`, the melting point lay in the range of 171 to 173 °C. For the molecule `Cc1c2c(c(Br)n1C)NC(=O)CN=C2c1ccccc1`, the melting point lay in the range of 200 to 202 °C. In turn, `CC(C)c1nc2ccccn2c(=O)c1-c1ccc(NC2CCN(C(=O)OC(C)(C)C)C2)cc1` (stereo not given) came in with a melting point of 232 to 236 °C.

`COc1cccc2c1CCC(C(=O)O)C2C(=O)O` (stereo not given): the melting point was 200 to 201 °C.

Take `O=C(NCCCCSc1ccncc1)c1ccccc1`: the melting point was in the range of 75 to 77 °C. To `CP(C)(=O)CCCOC(=O)c1cccnc1Nc1cccc(C(F)(F)F)c1` belongs 165 °C. In the case of `COc1cccc(C(=C/C=C/C(=O)O)c2cccc(OC)c2)c1`, the melting point lay within 179 to 180 °C. `Oc1cc2ccccc2cc1OCCOc1ccccc1` showed a melting point of 141 to 142 °C.

With `COC(=O)CCc1ccc(OC2Cc3ccccc3C2)cc1`, the melting point was in the range of 73 to 74 °C. In the case of `CCCCCCCCCCCCc1c[nH]c2cc(C(=O)O)ccc12`, the melting point is 181 to 184 °C.

For the molecule `CCc1nccc2c(CC(=O)O)cccc12`, the melting point lay within 166 to 181 °C. For `CCOC(=O)C1=C(C)NN=C(C(=O)O)C1c1cccc(Cl)c1` (stereo not given), the melting point came out at 182 °C. The value for `CC1(C)CCC(C)(C)c2cc3c(cc21)CCc1c(-c2ccc(C(=O)O)cc2)csc1-3` was 261 to 262 °C; that for `Cc1sc(N2CCCCC2)nc1CCl` was 79 to 80 °C; that for `COC(=O)c1ccc(-c2nc(-c3ccc(Cl)cc3)no2)c(N)c1` was 227 to 228 °C. As to `C#CCNC(=O)c1cccc(-c2ccc3cnc(Nc4ccc(N5CCN(C)CC5)cc4)nn23)c1`, the melting point lay within 185 to 187 °C. In turn, `O=C(C1CCC(Nc2nccc(-n3cc(Cc4ccc(-c5ccncc5)cc4)nn3)n2)CC1)N1CCC(O)CC1` (stereo not given) showed a melting point of 266 to 267 °C. As for `CCC(Oc1ccccc1)C(=O)NCCO[N+](=O)[O-]` (stereo not given), the melting point lay within 59 to 61 °C. Take `O=C1CSc2cccc(Cl)c2N1`: the melting point lay within 160 to 161 °C. To `Oc1ccc(Nc2cnc3cc(Cl)ccc3c2)cc1` belongs 218 °C.

On to `CC(C)C(=O)Nc1nn(C)c2c1sc1c(Cl)cccc12`, for which the melting point lay within 218 to 219 °C.

`CC(C)C1c2onc(-c3ccc(Cl)cc3)c2CCC1C(=O)O` (stereo not given) had a melting point of 180 to 182 °C.

`CCCCOC(=O)c1ccc(-c2nc(C(Cl)(Cl)Cl)nc(C(Cl)(Cl)Cl)n2)cc1`: the melting point was in the range of 109 to 110 °C. The molecule `COc1ccc(C2(O)CCN(CC3CN(c4ccccc4)C(=O)O3)CC2)cc1` (stereo not given) had a melting point of 121 to 122 °C. `COc1ccc(CC(=O)NCc2ccccc2-c2ccccc2C(=O)NCc2ccc(F)cc2F)cc1` came in with a melting point of 138 °C. Consider `Nc1cc(C2SCCCS2)c(Cl)cc1F`, for which the melting point fell in the range of 112 to 115 °C. For the molecule `C=C1C(=O)N(CC(=O)O)C(=O)N1Cc1cccc([N+](=O)[O-])c1`, the melting point was in the range of 169 to 171 °C. `CC(C)(C)OC(=O)CCc1cc(C#N)nc(-c2nc(=O)c3ccccc3s2)c1`: the melting point lay within 190 to 191 °C. To `Cc1ccc(N2C(=O)C(Cl)=C(C(=O)c3ccc(C(C)C)cc3)C2c2ccc(OC(F)(F)F)cc2)nn1` (stereo not given) belongs 293 °C.

In turn, `CCc1nn2c(-c3cccc(C(F)(F)F)c3)c(C)cnc2c1C#N` came in with a melting point of 163 to 164 °C. With `Cc1nn(-c2ccc(C(F)(F)F)cn2)cc1COc1cc(CCC(=O)O)n(C)n1`, the melting point is 154 to 155 °C. `Cc1nc(-c2ccc(F)cc2Cl)nn1-c1ccccc1C(F)(F)F` returned a melting point of 116 °C.

For the molecule `O=CC(=Cc1ccccc1Cl)C(C=O)=Cc1ccccc1Cl`, the melting point was 177 to 178 °C. On to `O=c1ncc(Cl)cn1C(SCc1ccccc1)c1ccccc1` (stereo not given), for which the melting point stood at 118 °C. To `CC(C)CCNC(Nc1cc(C(F)(F)F)cc(C(F)(F)F)c1)=C(C#N)C(=O)OC(C)(C)C` belongs 128 to 129 °C. The value for `Cc1cc(Br)nc2c1OCC(=O)N2` was 174 °C.

In turn, `CC(=O)Oc1ccc2c(c1)CCC1C3CCC(=O)C3(C)CC(O)C21O` (stereo not given) returned a melting point of 199 to 201 °C.
